Measurements reported in patent publication US7235537B2, “N3 alkylated benzimidazole derivatives as MEK inhibitors” (Array BioPharma, Inc., priority 2002, dated 2007).

Tested on: N-terminal 6 His-tagged, constitutively active MEK1 (2-393)
Experiment: MEK1 kinase assay (incorporation of γ-33P-phosphate from γ-33P-ATP onto ERK2)
Type: biochemical
Details: 5 nM MEK1, 1 μM ERK2, 10 μM ATP, 45 minutes at ambient temperature, 1% DMSO
Description: The activity of the compounds of the present invention may be determined by the following procedure. N-terminal 6 His-tagged, constitutively active MEK1 (2-393) is expressed in E. coli and protein is purified by conventional methods (Ahn et al., Science 1994, 265, 966-970). The activity of MEK1 is assessed by measuring the incorporation of γ-^33P-phosphate from γ-^33P-ATP onto N-terminal His tagged ERK2, which is expressed in E. coli and is purified by conventional methods, in the presence of MEK1. The assay is carried out in 96-well polypropylene plate. The incubation mixture (100 μL) comprises of 25 mM Hepes, pH 7.4, 10 mM MgCl2, 5 mM β-glycerolphosphate, 100 μM Na-orthovanadate, 5 mM DTT, 5 nM MEK1, and 1 μM ERK2. Inhibitors are suspended in DMSO, and all reactions, including controls are performed at a final concentration of 1% DMSO. Reactions are initiated by the addition of 10 μM ATP (with 0.5 μCi γ-^33P-ATP/well) and incubated at ambient temperature for 45 minutes. Equal volume of 25% TCA is added to stop the reaction and precipitate the proteins. Precipitated proteins are trapped onto glass fiber B filterplates, and excess labeled ATP washed off using a Tomtec MACH III harvester. Plates are allowed to air-dry prior to adding 30 μL/well of Packard Microscint 20, and plates are counted using a Packard TopCount.

Activity | Compound
active | O=C(NOCCO)c1cc2[nH]cnc2c(F)c1Nc1ccc(Br)cc1Cl [Compound 8n]
active | O=C(NOCC1CC1)c1cc2[nH]cnc2c(F)c1Nc1ccc(Br)cc1Cl [Compound 11b, 6-(4-Bromo-2-chloro-phenylamino)-7-fluoro-3H-benzoimidazole-5-carboxylic acid cyclopropylmethoxy-amide]
active | Cc1cc(Br)ccc1Nc1c(C(=O)NOCC2CC2)cc2c(ncn2C)c1F [Compound 11c]
active | O=C(NOCCO)c1cc2c(ncn2CC2CCCCO2)c(F)c1Nc1ccc(Br)cc1Cl (stereo not drawn) [Compound 11p, 6-(4-Bromo-2-chloro-phenylamino)-7-fluoro-3-(tetrahydro-pyran-2-ylmethyl)-3H-benzoimidazole-5-carboxylic acid (2-hydroxy-ethoxy)-amide]
active | Cc1cc(Br)ccc1Nc1c(C(=O)NOCC2CC2)cc2c(ncn2CCCCN2CCCCC2)c1F [Compound 18i]
active | CCCCn1cnc2c(F)c(Nc3ccc(Br)cc3Cl)c(C(=O)NOCC3CC3)cc21 [Compound 29bb]
active | Cn1cnc2c(F)c(Nc3ccc(Br)cc3Cl)c(C(=O)NOCCO)cc21 [Compound 29c, 6-(4-Bromo-2-chloro-phenylamino)-7-fluoro-3-methyl-3H-benzoimidazole-5-carboxylic acid (2-hydroxy-ethoxy)-amide]
active | Cn1cnc2c(F)c(Nc3ccc(Br)cc3Cl)c(C(=O)NOC(C)(C)CO)cc21 [Compound 29i]
active | Cn1cnc2c(F)c(Nc3ccc(Br)cc3F)c(C(=O)NOCCO)cc21 [Compound 29lll]
active | Cn1cnc2c(F)c(Nc3ccc(Br)cc3F)c(C(=O)NOC(C)(C)CO)cc21 [Compound 29mmm]
active | Cc1nc(Cn2cnc3c(F)c(Nc4ccc(Br)cc4Cl)c(C(=O)NOCCO)cc32)cs1 [Compound 29s]
active | O=C(NOCCO)c1cc2c(ncn2Cc2ccc(Cl)cc2)c(F)c1Nc1ccc(Br)cc1Cl [Compound 29t]
